Data: patent USRE35801E, “Prophylactic and therapeutic composition for circulatory disorders and method of treatment” (priority 1985, dated 1998)
Several values for one entry are separate records, joined by “and”; a condition that tells them apart may be missing. Equal values may be shown once.

What was measured:
[1] = tested on: cerebral ischemia recirculation model; assay: Protective action in cerebral ischemia recirculation model; assay type: in vivo, Wistar-strain male rat; parameters: key to Presence of electroencephalogram restoration / Judgement of action: The case when restoration of electroencephalogram is judged as +; case when not recognized as -
Protocol: (3) Protective action in cerebral ischemia recirculation model
A Wistar-strain male rat weighing about 400 g was administered intramascularly with 0.6 mg of di-tubocurarine to be immobilized and, after a trachea cannulation, the head portion was fixed under artificial respiration on a stereotaxic device. The head skin was cut open, cranial bone was bored, and then bipolar electrode for lead-out of electroencephalogram were placed on the surface of the subdural left frontal cerebral cortex. After the electrode was fixed with the cranial bone by use of dental cement, the animal was held on its back. Next, a cannula for measurement of systemic pressure was placed within the left femoral artery, and a cannula for additional administration of d-tubocurarine within the left femoral vein, respectively. The heart rate was measured and recorded by driving a heart rate meter with the artery wave.
After blood pressure, heart rate and various parameters of electroencephalogram were stabilized, 10 mg/kg of the active ingredient of the present invention prepared in a suspension so as to give 1 ml/kg in 1% tragacanth gum solution was administered directly into duodenum […]. To the control group, only the 1% tragacanth gum solution of the same volume was administered similarly.
Ten to twenty minutes after administration of the medicine, while monitoring the electroencephalogram, blood pressure and heart rate on a multi-purpose monitoring recording device (RM-85 model, produced by Nippon Koden K.K.), the following operations were performed according to the methods shown below for cerebral ischemia loading.
First, ribs were set free at the left costicartilage end to open the chest. Next, cerebral blood flow was blocked for ten minutes by obstructing the left common carotid artery and the left subclavian artery exposed at the aorta originating portion at the same time, and then the brachiocephalic trunk by use of artery clips 30 minutes after administration of the medicine.
Recirculation of cerebral blood flow was effected by releasing at the same time the two artery clips mounted on the respective sites as mentioned above.
The protective action of the medicine for the disorder after recirculation of cerebral ischemia was examined by the presence of restoration of electroencephalogram, and survival time of animal after the recirculation.
During the experiment, the rectal temperature of the animal was maintained at 37° to 38° C. by use of a warming mat. Also, the rectal temperature was continuously drawn on the recorder together with electroencephalogram, femoral artery pressure and heart rate.

[2] = tested on: myocardial ischemia (isolated heart, cardiac output); assay: Protective action for myocardial ischemia (isolated perfused working heart); parameters: species or system Wistar strain male rats
From the text: Protective action for myocardial ischemia
When coronary blood flow transporting nutritions to cardiac muscles is interrupted (disorder in blood flow) or recirculated (disorder in recirculation) by a certain cause, cardiac muscles will be damaged (disorder of mycardial ischemia). The degree of such disorder in cardiac muscles will be advanced as the period of ischemia state is prolonged to cause various ischemic cardiac disorders such as the so-called myocardial infarction and cardiac insufficiency.
Accordingly, the protective effect of the Compound No. 1, as a typical compound, on cardiac muscles were examined as described below.
In the experiment, Wistar strain male rats weighing 300 to 400 g were used. The heart was extirpated into a Krebs-Henseleit bicarbonate (KH) solution which had been oxygenated with 95% O2 -5% CO2, under anesthesia by intraperitoneal administration of 50 mg/kg of pentobarbital sodium. Immediately after the isolation, a cannula was intubated into the aorta ascendens, and perfusion was started according to the Langendorff method (75 cm H2 O). Subsequently, the cannula was intubated into the left artium. Then, perfusion in accordance with the Langerdorff method was further conducted for 10 minutes, and then the left artium cannula was opened change the mode of perfusion to that of the working heart method (preload 10 cm H2 O, afterload 80 cm H2 O) (American Journal of Physiology, 212, 804, 1967), which was conducted for 15 minutes. Next, in accordance with the method of Ichihara et al (Journal of Cardiovascular Pharmacology, 5, 745, 1983), the afterload on the aorta was released to provide an ischemic state in the cardiac muscles for 20 minutes. Since five minutes before the initiation of the ischemic state, the perfusate was changed to the one containing the test medicine and such perfusate was used also during the period of the ischemic state. Reperfusion was conducted for 30 minutes with a perfusate containing no test medicine with the afterload of 80 cm H2 O. In order to determine the cardiac functions, coronal perfusion flow (CF), cardiac output (CO), heart rate (HR), aorta pressure (AP) and rate pressure product (HR×AP) were measured. The CF was measured by use of a 10 ml measuring cylinder. The CO was measured through a direct blood flow measuring probe (Model FF-030, 30, produced by Nihon Kohden K.K.) disposed immediately in front of the left artium cannula, by use of an electromagnetic blood flow meter (Model MFV-2100, produced by Nihon Kohden K.K.) and an amplifier for bioelectricity (Mode AB-621G, produced by Nihon Kohden K.K,). The AP was measured through a pressure transducer (Model MPU-0.5, produced by Nihon Kohden K.K.) connected to the aortic cannula, by use of an amplifier for distortion pressure (Model AP-601G, produced by Nihon Kohden K.K.). The HR was measured by use of an cardiotacho meter (Model AT-601G, produced by Nihon Kohden K.K.). The rate pressure product (HR×AP) was calculated by multiplying the HR by the aortic pressure.
As the perfusate, a KH solution, which had been oxygenated with 95% O2 -5% CO2 and heated to 37° C. was used. The formulation of the KH solution (unit: mM) is as follows. NaCl 118, KCl 4.7, CaCl2 2.5, MgSO4 1.2, KH2 PO4 1.2, NaHCO3 25 and glucose 11. […]
Changes in the cardiac functions after treatment with the test medicine and recovery thereof at reperfusion are indicated in terms of percentage based on the value measured before the treatment with the test medicine. […]

Structure (SMILES): CC1=NN(c2ccccc2)C(=O)C1 [Compound 1, 3-methyl-1-phenyl-2-pyrazolin-5-one]
- Presence of electroencephalogram restoration ([1]; 10 mg/kg into duodenum, 10 min cerebral ischemia (Table 3)): +
- Survival time after recirculation, average ([1]; 10 mg/kg, average): 117 min
- Judgement of action ([1]; 10 mg/kg, individual animal): +
- Presence of electroencephalogram restoration ([1]; 10 mg/kg, individual animal): +
- Survival time after recirculation ([1]; 10 mg/kg, individual animal): 46 min and 140 min and 164 min
- electroencephalogram restoration during recirculation period (in words) ([1]; active ingredient group): electroencephalogram appeared by restoration during recirculation period depending on the dose of 3 to 10 mg/kg
- survival time of animals after recirculation (in words) ([1]; active ingredient group): clearly elongated
- protective action for myocardial ischemia (in words) [2]: exhibits protective action for myocardial ischemia
- Recovery of the cardiac output (CO) ([2]; 10^-5 M, 30 minutes after reperfusion after 20 min ischemia, N = 5, mean ± standard error (Table 5)): 23.8 ± 14.6%
- Recovery of the cardiac functions (CO 50% or more), percentage ([2]; 30 minutes after reperfusion): 40%
- average recovery action based on the cardiac output (CO) ([2]; 30 minutes after reperfusion after 20 min cardiac ischemia): 24%
- Number of recovery of the cardiac functions (CO 50% or more) ([2]; hearts recovered/total, 30 minutes after reperfusion): 2/5
